For assay [1], the target named is T1, concanavalin A (Con A) (Canavalia ensiformis, UniProt P02866).
T1 construct: purchased Calbiochem
Nature of the assay: Inhibition of Con A induced erythrocyte agglutination (hemagglutination inhibition assay). In kind it is cell-based. Here is the method:
To assess the activity of our polymers, we compared the ability of the polymer to inhibit erythrocyte agglutination by Con A with that of several controls including the monovalent carbohydrate derivative methyl-α-D-glucopyranoside and the divalent-glucose substituted 7-oxanorbornene 3.
The agglutination inhibition assays were performed according to standard protocols. (Osawa, et al., Methods Enzymol. 28:323-327, 1972.) The assay was as follows: Pure lyophilized Con A was dissolved in HEPES buffer with 100 mM CaCl2, pH 8.0, and dialyzed into phosphate buffered saline (PBS, 25 mM sodium phosphate, 0.15M NaCl), pH 7.2, for the assay. Protein solution concentration was estimated from UV absorbance measurements at 280 nm.
Rabbit red blood cells were stored as a 10% suspension in Alsever's solution and washed 3× with PBS before the assay. For the assay, the cells were pelleted and resuspended in PBS with 0.5% bovine serum albumin.
Polymeric inhibitors were purified by precipitation or by gel filtration. The inhibition results obtained for compounds purified by either method were consistent. The minimum concentration of inhibitor required to inhibit four hemagglutinating doses of Con A was determined. After preincubation with the inhibitor, a 2% suspension of erythrocytes was added. The samples were examined for agglutination after 1 hour at room temperature.
Substrates were incubated with four agglutinating doses of Con A, prior to the addition of rabbit erythrocytes. The concentration of glucose moieties in solution required for inhibition was determined for each substrate within a two-fold dilution.

Assay [2] addresses L-selectin. Nature of the assay: ELISA: inhibition of L-selectin-IgG binding to immobilized GlyCAM-1. Here is the method: (§1) The affinity of compounds 8, 9 and 10 for each selectin were tested in an ELISA assay that compares their ability to inhibit binding of the selectins to immobilized GlyCAM-1. Because all of the selectins bind to GlyCAM-1 (FIG. 4) this assay provides insight into the relative affinities and specificities of the identified GlyCAM-1 component for each selectin.
(§2) The ELISAs were executed by the following protocol: An antibody to GlyCAM-1 was immobilized in a microtiter well. GlyCAM-1 was added. Selectin-IgG chimeras, which were biotinylated, were added to streptavidin-alkaline phosphatase conjugate. The binding of the selectin-IgGbiotin .cndot.strepavidin-alkaline phosphatase to GlyCAM-1 was monitored by UV. Para-nitrophenolate is produced from alkaline phosphatase catalyzed hydrolysis of paranitrophenolphosphate (Qed). The inhibitory effects of saccharides 8-10 on selectin-IgG binding to immobilized GlyCAM-1 were measured by this method.
On the technique in general: In an ELISA, binding on a coated surface is turned into a signal by an enzyme label.

For assay [3], the system named is E-selectin. Nature of the assay: ELISA: inhibition of E-selectin-IgG binding to immobilized GlyCAM-1. Conditions: compared among 8, 9, 10. On the procedure: as §1, §2
The subject of assay [4] is P-selectin. Put plainly: ELISA: inhibition of P-selectin-IgG binding to immobilized GlyCAM-1. Conditions: compared among 8, 9, 10. Here is the method:
as §1, §2

Assay [5] relates to Con A. Conditions: cited from earlier work.
Where [6] appears, read: Table 2, four agglutinating doses of Con A, rabbit erythrocytes, 1 hour at room temperature, pH 7.2, within a two-fold dilution.

The source of these data is patent US5587442A, “Polyglycomers” (priority 1994, dated 1996).

`O=C(OCCC1OC(CO)C(O)C(O)C1O)C1C2C=CC(O2)C1C(=O)OCCC1OC(CO)C(O)C(O)C1O` (centres unmarked) [7-oxanorbornene 3]: the “Inhibiting dose compared with methyl-α-D-glucopyranoside (in words)” value in assay [1] was “comparable”. In addition, the “Inhibiting Dose [carbohydrate residues]” value in assay [1] (setting [6]) was determined as 0.025 M.
Take `CCCO[C@@H]1O[C@H](CO)[C@@H](O[C@@H]2O[C@@H](C)[C@@H](O)[C@@H](O)[C@@H]2O)[C@H](O[C@@H]2O[C@H](CO)[C@H](O)[C@H](OS(=O)(=O)O)[C@H]2O)[C@H]1O` [Compound 8]: the “IC50 for preventing L-selectin binding (in words)” value in assay [2] is listed as “in the mmolar range”. The “relative effectiveness in binding to E-selectin (in words)” value in assay [3] is given as “considerably more effective than the 6-sulfate 9 or the 3,6-disulfate 10”. For the same molecule, the “relative effectiveness at blocking P-selectin binding (in words)” value in assay [4] is “the worst at blocking binding”.
Turning to `CCCO[C@@H]1O[C@H](CO)[C@@H](O[C@@H]2O[C@@H](C)[C@@H](O)[C@@H](O)[C@@H]2O)[C@H](O[C@@H]2O[C@H](COS(=O)(=O)O)[C@H](O)[C@H](O)[C@H]2O)[C@H]1O` [Compound 9], the “IC50 for preventing L-selectin binding (in words)” value in assay [2] was “in the mmolar range”. In addition, the “relative effectiveness at blocking P-selectin binding (in words)” value in assay [4] is reported as “slightly better”.
With `CCCO[C@@H]1O[C@H](CO)[C@@H](O[C@@H]2O[C@@H](C)[C@@H](O)[C@@H](O)[C@@H]2O)[C@H](O[C@@H]2O[C@H](COS(=O)(=O)O)[C@H](O)[C@H](OS(=O)(=O)O)[C@H]2O)[C@H]1O` [Compound 10], in assay [2], the “IC50 for preventing L-selectin binding (in words)” value is on record as “in the mmolar range”. The “relative binding to L-selectin (in words)” value in assay [2] (compared among 8, 9, 10) is “bound no more tightly to L-selectin than the 3- and 6-sulfo analogs 8 and 9”. The “relative effectiveness at blocking P-selectin binding (in words)” value in assay [4] is given as “the most active”.
As for `CO[C@H]1O[C@H](CO)[C@@H](O)[C@H](O)[C@H]1O` [methyl-α-D-glucopyranoside, reference compound], the “Inhibiting Dose [carbohydrate residues]” value in assay [1] (setting [6]) worked out at 0.05 M.
On to `CO[C@H]1O[C@H](CO)[C@@H](O)[C@H](O)[C@@H]1O` [methyl-α-D-mannopyranoside, reference compound], for which the “Inhibiting Dose [carbohydrate residues]” value in assay [1] (Table 3, hemagglutination inhibition assay, mono- and multivalent carbohydrate derivatives) came to 0.05 M.
As for fucose, the “binding of fucose to Con A (in words)” value in assay [5] (Goldstein 1976) was “does not bind”.
On to mannose, for which the “binding to Con A (in words), calorimetric data” value in assay [5] (compared with glucose) is “slightly higher affinity”.
